Measured values reported in US20070072831A1, “Integrase inhibitor compounds” (GILEAD SCIENCES, INC., priority 2005, published 2007).

What was measured:
HIV-IIIb = assay: Antiviral assay in MT-4 cells infected with HIV-IIIb; type: cell-based; details: MT4, 120 h; MT-4 cells, HIV-IIIb, 5 days; read-out: EC50 Range MT-4
Summary of the method: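 MT-4 cells mixed with HIV-IIIb at m.o.i. 0.1 and added at once to 5-fold serial compound dilutions (7 concentrations, triplicate) in medium with 10% FBS. After 5 days at 37° C, cell viability read by CellTiter-Glo chemiluminescence.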

HIV integrase = HIV integrase (Human immunodeficiency virus type 1 group M subtype B, UniProt P04585); assay: biochemical
Experimental: Representative compounds of the invention were tested for biological activity by methods including anti-HIV assay, measuring inhibition of HIV-integrase strand transfer catalysis, and cytotoxicity.
HIV Integrase Assay (IC50 Determination)
The HIV Integrase assay is carried out in Reacti-Bind High Binding Capacity Streptavidin coated plates (Pierce # 15502) in 100 μl reactions. The wells of the plate are rinsed once with PBS. Each well is then coated at room temperature for 1 h with 100 μl of 0.14 μM Donor DNA with the following sequence:
After coating, the plate was washed twice with PBS. 3′processing of the Donor DNA is started by adding 80 μl of Integrase/buffer mixture (25 mM HEPES, pH 7.3, 12.5 mM DTT, 93.75 mM NaCl, 12.5 mM MgCl2, 1.25% Glycerol, 0.3125 uM integrase) to each well. 3′processing is allowed to proceed for 30 min at 37° C., after which, 10 μl of test compound and 10 μl of 2.5 uM DIG-labeled Target DNA with the following sequence:
are added to each well to allow strand transfer to proceed for 30 min at 37° C. The plate is then washed three times with 2×SSC for 5 min and rinsed once with PBS. For detection of integrated product, 100 μl of a 1/2000 dilution of HRP-conjugated anti-DIG antibody (Pierce #31468) are added to each well and incubated for 1 hour. The plate was then washed three times for 5 min each, with 0.05% Tween-20 in PBS. For signal development and amplification, 100 μl of SuperSignal ELISA Femto Substrate (Pierce #37075) are added to each well. Chemiluminescence (in relative light units) is read immediately at 425 nm in the SPECTRAmax GEMINI Microplate Spectrophotometer using the end point mode at 5 sec per well.
For IC50 determinations, eight concentrations of test compounds in a 1/2.2 dilution series are used.

CN(C(=O)N1CCOCC1)c1c2c(c(O)c3ncccc13)C(=O)N(Cc1ccc(F)cc1)C2 [Compound 173, N-(7-(4-fluorobenzyl)-9-hydroxy-8-oxo-7,8-dihydro-6H-pyrrolo[3,4-g]quinolin-5-yl)-N-methylmorpholine-4-carboxamide]
EC50 (HIV-IIIb): 0.06 to 1 µM
IC50 (HIV integrase): 0.06 to 1 µM

CN(c1c2c(c(O)c3ncccc13)C(=O)N(Cc1ccc(F)cc1)C2)S(C)(=O)=O [Compound 29, N-(7-(4-fluorobenzyl)-9-hydroxy-8-oxo-7,8-dihydro-6H-pyrrolo[3,4-g]quinolin-5-yl)-N-methylmethanesulfonamide]
EC50 (HIV-IIIb): < 0.06 µM
IC50 (HIV integrase): < 0.06 µM

O=C1c2c(c(N3CCCNC3=O)c3cccnc3c2O)CN1Cc1ccc(F)cc1 [Compound 222, 7-(4-fluorobenzyl)-9-hydroxy-5-(2-oxo-tetrahydropyrimidin-1(2H)-yl)-6,7-dihydropyrrolo[3,4-g]quinolin-8-one]
EC50 (HIV-IIIb): < 0.06 µM
IC50 (HIV integrase): 0.06 to 1 µM

CN(c1c2c(c(O)c3ncccc13)C(=O)N(Cc1ccc(F)cc1N)C2)S(C)(=O)=O [Compound 103, N-(7-(2-amino-4-fluorobenzyl)-9-hydroxy-8-oxo-7,8-dihydro-6H-pyrrolo[3,4-g]quinolin-5-yl)-N-methylmethanesulfonamide]
EC50 (HIV-IIIb): < 0.06 µM
IC50 (HIV integrase): < 0.06 µM

CN(C)C(=O)c1cc(F)ccc1CN1Cc2c(c(O)c3ncccc3c2N(C)S(C)(=O)=O)C1=O [Compound 90, 5-fluoro-2-((9-hydroxy-5-(N-methylmethylsulfonamido)-8-oxo-6H-pyrrolo[3,4-g]quinolin-7(8H)-yl)methyl)-N,N-dimethylbenzamide]
EC50 (HIV-IIIb): < 0.06 µM
IC50 (HIV integrase): 0.06 to 1 µM

CN(c1c2c(c(OCOC(=O)OC3CCC3)c3ncccc13)C(=O)N(Cc1ccc(F)cc1)C2)S(C)(=O)=O [Compound 31, (7-(4-fluorobenzyl)-5-(N-methylmethan-5-ylsulfonamido)-8-oxo-7,8-dihydro-6H-pyrrolo[3,4-g]quinolin-9-yloxy)methyl cyclobutyl carbonate]
EC50 (HIV-IIIb): < 0.06 µM
IC50 (HIV integrase): > 1 µM
